Measured values reported in patent US5607544A, “Process and agent for the oxidative bleaching of wood pulp and for deinking waste paper” (BK Ladenburg GmbH fur Chemische Erzeugnisse, priority 1994, dated 1997).

Columns and labels:
[1] = tested on: catalase; assay: Catalase test: pressure increase after hydrogen peroxide addition to deinking process water of a paper factory; assay type: biochemical; conditions: 0.1% hydrogen peroxide
Description: (§1) The catalase test depends upon the measurement of the increase of the pressure in an airtight-closed vessel after the introduction of 0.1% hydrogen peroxide. With increasing concentration of catalase in a sample, the pressure to be measured increases correspondingly. The pressure is given as an electric signal in relative units (mV). The pressure increase is measured after 10 minutes.

[2] = target: T1, enzyme catalase (No. C10 Sigma catalogue) (Bos taurus, UniProt P00432); assay: Action on the pure enzyme catalase, absorption decrease at 240 nm; assay type: biochemical
T1 construct: purchased Sigma C10
T1 sequence (P00432 2-527 limits assumed): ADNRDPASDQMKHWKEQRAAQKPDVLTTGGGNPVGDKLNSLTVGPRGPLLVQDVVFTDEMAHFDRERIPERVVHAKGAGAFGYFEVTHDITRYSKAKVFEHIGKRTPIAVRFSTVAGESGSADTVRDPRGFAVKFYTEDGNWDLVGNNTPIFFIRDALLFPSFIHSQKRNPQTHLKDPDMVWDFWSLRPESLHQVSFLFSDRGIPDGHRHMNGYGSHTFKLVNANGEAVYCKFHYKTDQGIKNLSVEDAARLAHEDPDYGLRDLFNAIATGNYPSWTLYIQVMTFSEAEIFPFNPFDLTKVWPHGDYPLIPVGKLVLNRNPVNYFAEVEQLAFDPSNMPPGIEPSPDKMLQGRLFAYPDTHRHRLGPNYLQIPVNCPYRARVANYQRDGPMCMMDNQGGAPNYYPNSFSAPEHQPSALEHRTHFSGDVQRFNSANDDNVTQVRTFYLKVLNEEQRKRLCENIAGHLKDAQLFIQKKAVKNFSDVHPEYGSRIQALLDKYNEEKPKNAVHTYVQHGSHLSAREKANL
Description: phosphate buffer 0.05M, pH 7.0 (K2 HPO4 : 8.7 g/l; KH2 PO4 : 6.8 g/l)
enzyme catalase (No. C10 Sigma catalogue)
substrate hydrogen peroxide (30%).
Dissolve catalase in 0.05M phosphate buffer.
Concentration: 50 sigma units per ml of buffer.
Dissolve 0.1 ml 30% hydrogen peroxide in 50 ml of 0.05M phosphate buffer (control) or in 50 ml phosphate buffer which contains the stabiliser (substrate). Measure the absorption at 240 nm. The result must lie between 0.550 and 0.520. Possibly dilute the solution or add more hydrogen peroxide thereto.
2.9 ml of solution B are placed in a quartz cuvette and subsequently mixed with 0.1 ml of solution A. The absorption at 240 nm should, at the beginning of the measurement, amount to approximately 0.450. The time needed for the decrease of the absorption at 240 nm from 0.450 to 0.400 is determined. This time corresponds to the conversion of 3.45 μmol hydrogen peroxide in 3 ml of sample volume.
(sigma units total)=3.45: time (minutes calculating back to active sigma units 1 sigma unit reacts 1.0 μmol hydrogen peroxide per minute (at pH 7.0; 25° C.).

[3] = Laboratory deinking experiment with process water 1 (whiteness, flotate, ash, residual peroxide); conditions: 0 sample 15.7%
Description: Into 1 liter of water of 30° dH (tap water) are introduced:
(§2) Into the pulper (2800 r.p.m.) are introduced 50 g of atro waste paper and the chemical solution is subsequently introduced. The pulping time is 10 minutes. After ending of the brushing out time, the paper slurry is shaken out into a glass beaker, stirred up with a commercially available ultrasonic disperser and the pH value determined.
The pH value is 9.5±0.2. 100 ml are taken from the brushed out suspension and a sheet formed (degree of whiteness and brightness before the flotation).
(§3) The remaining fibre material is placed for 110 minutes in a waterbath with a temperature of 50° C. After the residence time, it is dispersed with a disperser for 1 minute at 10,000 r.p.m. The paper slurry is emptied into a flotation cell which is filled with water with a temperature of 50° C. There is thereby adjusted a material density of 0.8% (pH value 8.5). Air is introduced into the cell at a rate of 60 liters/hour and the speed of stirring is 1000 r.p.m. The flotation time is 10 minutes, foam being skimmed off manually. After the flotation is ended, acidification is carried out with sulphuric acid to pH 5 and sheets are formed.
The brightness and degree of whiteness are measured on the front and rear side and the average value determined.
R 457: reflection factor at 457 nm wavelength
Y/C: standard type of light C/1931
Process water 1 was used. The statements of percentage refer to the commercial product and the residual peroxide was determined by a titration method.

[4] = tested on: catalase; assay: Pressure increase after hydrogen peroxide addition to process water 3 (rate of decomposition of peroxide); assay type: biochemical; conditions: 400 ppm referred to process water volume, 0.1% hydrogen peroxide, after 10 minutes, ambient temperature, 0 sample 9.8
Description: as §1
As sample, there was used process water 3 and worked up analogously to Example 1. After the addition of 0.1% hydrogen peroxide (referred to 100% hydrogen peroxide), there was measured the pressure increase in relative pressure units (in mV) after 10 minutes. The measurement took place at ambient temperature.

[5] = Flotation experiment in tap water without waterglass (stability of hydrogen peroxide); conditions: no waterglass; for residual peroxide: 0 sample 15%
Description: as §2, §3
In the case of this experiment, working was analogous to Example 3 but tap water was used instead of process water. […] At the same time, in the case of this experiment, the addition of waterglass as stabiliser is omitted.

[6] = Residual peroxide content by iodometric titration in deinking process water samples
Text: The measurement of the residual peroxide content took place by iodometric titration.
The initial peroxide content corresponds to 100% (=0.1% hydrogen peroxide (100%)).

[7] = 400 ppm active substance, pressure increase after 10 minutes, comparison sample without additive 9.8

With N#CC(Br)(Br)C(N)=O [DBNPA, 2,2-dibromo-3-nitrilopropionamide] the “pressure in relative units” value [1, 7] was greater than 9.0 mV.
In the case of N#CSCSC#N [MBT, methylene bisthiocyanate], the “pressure in relative units” value [1, 7] is reported as 6.2 mV.
For CNC(=S)S [MDTCMA, monomethylammonium monomethyl dithiocarbamate], the “pressure in relative units” value [1, 7] was greater than 9.0 mV.
With OCl [Sodium hypochlorite] the “action on the pure enzyme catalase (in words)” value ([2]; solution B (hydrogen peroxide in phosphate buffer)) was “reacts in solution B with hydrogen peroxide with decomposition before catalase can be added”.
For OC[P+](CO)(CO)CO [THPS, tetrakishydroxymethylphosphonium sulphate], the “pressure in relative units” value [1, 7] was greater than 9.0 mV.
For O=CCCCC=O [glutaraldehyde], the inhibition at 0.5 ppm ([2]; 0.5 ppm, pH 7.0) was 6%, the inhibition at 2.5 ppm ([2]; 2.5 ppm, pH 7.0) was 9% and the inhibition at 5 ppm ([2]; 5 ppm, pH 7.0) was 11%.
For CNC(=S)S [metamsodium, sodium monomethyldithiocarbamate], the “pressure in relative units” value [1, 7] was 5.0 mV.
In the case of O=C(C(Cl)=NO)c1ccc(O)cc1 [paraclox, 2-oxo-2-(4-hydroxyphenyl)-acethydroximic acid chloride], the residual peroxide ([3]; paraclox 0.02%) is reported as 21.4%, the residual peroxide ([3]; paraclox 0.04%) is reported as 28.5% and the residual peroxide ([3]; paraclox 0.08%) is reported as 49.7%. It also gave an inhibition at 0.2 ppm ([2]; 0.2 ppm, pH 7.0) of 0%, an inhibition at 1 ppm ([2]; 1 ppm, pH 7.0) of 16% and an inhibition at 2 ppm ([2]; 2 ppm, pH 7.0) of 63%. For the same compound, the “pressure in relative units” value ([1]; 10 ppm active substance, after 10 minutes) was 4.2 mV, the “pressure in relative units” value ([1]; 100 ppm active substance, after 10 minutes) was 0.5 mV and the “pressure in relative units” value [1, 7] was 0.2 mV. For the same compound, the “pressure increase in relative pressure units” value [4] was 0.2 mV, the “stabilising action on the peroxide (in words)” value [5] was “very good stabilising action on the peroxide” and the residual peroxide ([5]; paraclox 0.02%) was 34.0%. For the same compound, the residual peroxide ([5]; paraclox 0.04%) was 41.0%, the residual peroxide ([5]; paraclox 0.08%) was 52.4% and the residual peroxide content ([6]; Process water 1 (clear filtrate), 10 ppm, 0 min.) was 100%. The residual peroxide content ([6]; Process water 1 (clear filtrate), 10 ppm, 30 min.) was 55.4%, the residual peroxide content ([6]; Process water 1 (clear filtrate), 10 ppm, 60 min.) was 43.1% and the residual peroxide content ([6]; Process water 1 (clear filtrate), 10 ppm, 90 min.) was 33.8%. For the same compound, the residual peroxide content ([6]; Process water 1 (clear filtrate), 10 ppm, 120 min.) was 26.9%, the residual peroxide content ([6]; Process water 1 (clear filtrate), 100 ppm, 0 min.) was 100% and the residual peroxide content ([6]; Process water 1 (clear filtrate), 100 ppm, 30 min.) was 95.4%. For the same compound, the residual peroxide content ([6]; Process water 1 (clear filtrate), 100 ppm, 60 min.) was 87.7%, the residual peroxide content ([6]; Process water 1 (clear filtrate), 100 ppm, 90 min.) was 87.7% and the residual peroxide content ([6]; Process water 1 (clear filtrate), 100 ppm, 120 min.) was 86.1%. The residual peroxide content ([6]; Process water 2 (drum 1), 2 ppm, 0 min.) was 100%, the residual peroxide content ([6]; Process water 2 (drum 1), 2 ppm, 30 min.) was 3.6% and the residual peroxide content ([6]; Process water 2 (drum 1), 2 ppm, 60 min.) was 0%. It also gave a residual peroxide content ([6]; Process water 2 (drum 1), 2 ppm, 90 min.) of 0%, a residual peroxide content ([6]; Process water 2 (drum 1), 2 ppm, 120 min.) of 0% and a residual peroxide content ([6]; Process water 2 (drum 1), 20 ppm, 0 min.) of 100%. The residual peroxide content ([6]; Process water 2 (drum 1), 20 ppm, 30 min.) was 62.1%, the residual peroxide content ([6]; Process water 2 (drum 1), 20 ppm, 60 min.) was 56.8% and the residual peroxide content ([6]; Process water 2 (drum 1), 20 ppm, 90 min.) was 50.8%. The residual peroxide content ([6]; Process water 2 (drum 1), 20 ppm, 120 min.) was 47%.
